The format of data set [1] is in vitro ADME. The conditions noted are these: pig, 30 min, 0.5 mM. As for the experimental part:
In particular, first, frozen pig skin purchased from a slaughterhouse was left out at room temperature and thawed for 2 to 3 hours for preparation. Then, hair on the pig skin was removed, and the pig skin was stretched to have elasticity and fixed on a plate with pins. As an experimental group, the mask pack prepared according to an embodiment was applied to the pig skin for 30 minutes, and as a control group, a mask pack on which a RED battery was not mounted was applied to the pig skin for 30 minutes. 0.5 mM of Calcein (having a molecular weight of 622.55 g/mol, available from Sigma-Aldrich), which is a fluorescent agent, was used in a material-containing portion. Thereafter, the pig skin was prepared as samples and fixed for 24 hours by using a fixing solution of 4% paraformaldehyde (pH 7.4 at 4° C.). After the fixing, the samples were sufficiently washed with a PBS (pH 7.4) solution, and embedded with a Tissue-Tek O.C.T. compound (available from Sakura Finetek, USA) and rapidly cooled. The cooled samples were cut to a size of 7 um by using a cryomicrotome (Shandon Cryotome SME Cryostat, Shandon Scientific LTD, Cheshire, England). The cryomicrotomed tissue was washed with a PBS solution, mounted on a mounting solution, covered with a cover slip, and observed using a fluorescent microscope (Axio Observer Z1; Zeiss, Gottingen, Germany), and the results are shown in FIG. 11.

Data set [2] in a line: Degree of absorption of vitamin C by mouse skin from patch (HPLC). The conditions noted are these: 12.5 mg per patch, 6 hours, hairless mouse back skin. Type of data set: in vitro ADME. As for the experimental part:
In particular, hairless mouse skin was used to measure a cumulative amount of vitamin C in skin of a mouse. As a control group, a preparation containing vitamin C in a general patch was used. As an experimental group, a preparation containing vitamin C in a patch using reverse electrodialysis was used. A cohesive hydrogel-type patch was prepared by using 3 w/v % Carbopol, and 0.5 mL of a vitamin C-containing cohesive hydrogel was loaded on the patch (an amount of vitamin C was 2.5 w/v %, and an amount of vitamin C loaded per patch was 12.5 mg). Back skin of a 5 week-old mouse (20 to 25 g) was taken, and the patch was mounted thereon. The patch was removed after being incubated for 6 hours, and the skin was carefully separated, quickly washed by using DDW and MeOH, and freeze-stored at −70° C. […] Amounts of vitamin C in the samples were measured by using high-performance liquid chromatography (HPLC) using a mixture of acetonitrile and 0.3 M of KH2PO4 (pH 4) at a ratio of 40:60 as a mobile phase, a Nucleosil NH2 (100 μm) column, a flow rate of 0.8 mL/min, an insertion volume of 20 μL, a UV wavelength of 264 nm, and a column temperature of 25° C., and the results are shown in FIG. 13.

Turning to `O=C(O)CN(CC(=O)O)Cc1cc2c(cc1O)Oc1cc(O)c(CN(CC(=O)O)CC(=O)O)cc1C21OC(=O)c2ccccc21` [Calcein], in data set [1], the “amount of fluorescence that permeated into skin” value was 0.47 ng/cm^2; the “amount permeated into skin” value is reported as “about 0.05 ng/cm^2”; the “increase of amount permeated into skin, reverse electrodialysis mask pack compared to passive diffusion” value was “about 7 times”.
Regarding `O=C1O[C@H]([C@@H](O)CO)C(O)=C1O` [vitamin C], the “locally remaining amounts of vitamin C of the epidermis layer and the dermis layer” value in data set [2] (control group general patch) is “small”. The “increase of locally remaining amounts of vitamin C of the epidermis layer and the dermis layer relative to control group” value in data set [2] (reverse electrodialysis patch vs general patch) is reported as “about 3 times”.
